In experiment [1] the test system is Non-Peptide Receptors, Peptide Receptors, Ion Channels. The experiment can be described thus: Screening for receptors affected by SSAO inhibitor (specific ligand binding). The note with it: 10 μM concentration; receptor families listed. As for the experimental part:
A screening procedure was employed to determine whether compound I-1-Z affects specific ligand binding to various receptors. Ligand binding to the following receptors was not affected by a 10 μM concentration of compound I-1-Z:
Non-Peptide Receptors: Adenosine, Adrenergic, Benzodiazepine, Cannabinoid, Dopamine, GABA, Glutamate, Histamine, Melatonin, Muscarinic, Prostanoid, Purinergic, Serotonin, Sigma;
Peptide Receptors: Angiotensin II, Bombesin, Bradykinin, Calcitonin-related peptide, Chemokine, Cholecystokinin, Cytokine, Endothein, Galanin, Growth factor, Melanocortin, Neurokinin, Neuropeptide Y, Neurotensin, Opioid, Somatostatin, VIP, Vasopressin;
Ion Channels: Calcium, Potassium, Sodium. […]
For Table 4 below, the specific ligand binding to the receptors is defined as the difference between the total binding and the nonspecific binding determined in the presence of an excess of unlabelled ligand. The results are expressed as a percent inhibition of control specific binding obtained in the presence of Compound I-1-Z. The IC50 values (concentration causing a half-maximal inhibition of control specific binding) and Hill coefficients (nH) were determined by non-linear regression analysis of the competition curves using Hill equation curve fitting. […]

Experiment [2] deals with T1, μ (h) (MOP) (agonist site) (Homo sapiens, UniProt P35372).
T1 construct: expressed in transfected cells; host or cells: HEK-293 cells
In words: Receptor binding screen, [^3H]DAMGO. The note with it: 10 uM Concentration of Compound I-1-Z; read-out: Mean Value, percent inhibition of control specific binding: μ (h) (MOP) (agonist site). Here is the method: (§1) For Table 4 below, the specific ligand binding to the receptors is defined as the difference between the total binding and the nonspecific binding determined in the presence of an excess of unlabelled ligand. The results are expressed as a percent inhibition of control specific binding obtained in the presence of Compound I-1-Z. The IC50 values (concentration causing a half-maximal inhibition of control specific binding) and Hill coefficients (nH) were determined by non-linear regression analysis of the competition curves using Hill equation curve fitting. The inhibition constants (Ki) were calculated from the Cheng Prusoff equation (Ki=IC50/(1+(L/KD)), where L=concentration of radioligand in the assay, and KD=affinity of the radioligand for the receptor). In each experiment, the respective reference compound was tested concurrently with Compound I-1-Z in order to assess the assay suitability.

For the next experiment, the target named is T2, GAL2 (h) (Homo sapiens, UniProt O43603).
T2 construct: expressed in transfected cells; host or cells: CHO cells
In words: Receptor binding screen, [^125I]galanin. The note with it: 10 uM Concentration of Compound I-1-Z; read-out: Mean Value, percent inhibition of control specific binding: GAL2 (h).

The target in another experiment is T3, M5 (h) (Homo sapiens, UniProt P08912).
T3 construct: expressed in transfected cells; host or cells: CHO cells
In words: Receptor binding screen, [^3H]4-DAMP. Conditions: 10 uM Concentration of Compound I-1-Z; read-out: Mean Value, percent inhibition of control specific binding: M5 (h).

The target in a further experiment is T4, BZD (peripheral) (Rattus norvegicus, UniProt P16257).
T4 construct: rat heart; from tissue; host or cells: rat heart
In words: Receptor binding screen, [^3H]PK 11195. The note with it: 10 uM Concentration of Compound I-1-Z; read-out: Mean Value, percent inhibition of control specific binding: BZD (peripheral).

In a further experiment the target is T5, V1a (h) (Homo sapiens, UniProt P37288).
T5 construct: expressed in transfected cells; host or cells: CHO cells
In words: Receptor binding screen, [^3H]AVP. The note with it: 10 uM Concentration of Compound I-1-Z; read-out: Mean Value, percent inhibition of control specific binding: V1a (h).

The target in a further experiment is T6, NK1 (h) (Homo sapiens, UniProt P25103).
T6 construct: U-373MG cells; endogenous in cells; host or cells: U-373MG cells
The experiment can be described thus: Receptor binding screen, [^125I]BH-SP, U-373MG cells. The note with it: 10 uM Concentration of Compound I-1-Z; read-out: Mean Value, percent inhibition of control specific binding: NK1 (h).

The target in another experiment is T7, H2 (h) (Homo sapiens, UniProt P25021).
T7 construct: expressed in transfected cells; host or cells: CHO cells
The experiment can be described thus: Receptor binding screen, [^125I]APT. The note with it: 10 uM Concentration of Compound I-1-Z; read-out: Mean Value, percent inhibition of control specific binding: H2 (h).

The next experiment has as its target T8, D3 (h) (Homo sapiens, UniProt P35462).
T8 construct: expressed in transfected cells; host or cells: CHO cells
The experiment can be described thus: Receptor binding screen, [^3H]spiperone. Conditions: 10 uM Concentration of Compound I-1-Z; read-out: Mean Value, percent inhibition of control specific binding: D3 (h).

For another experiment, the target named is T9, AT1 (h) (Homo sapiens, UniProt P30556).
T9 construct: expressed in transfected cells; host or cells: CHO cells
The experiment can be described thus: Receptor binding screen, [^125I][Sar^1,Ile^8]-ATII. The note with it: 10 uM Concentration of Compound I-1-Z; read-out: Mean Value, percent inhibition of control specific binding: AT1 (h).

The target in the next experiment is T10, β2 (h) (Homo sapiens, UniProt P07550).
T10 construct: expressed in transfected cells; host or cells: Sf9 cells
The experiment can be described thus: Receptor binding screen, [^3H](−)CGP 12177. The note with it: 10 uM Concentration of Compound I-1-Z; read-out: Mean Value, percent inhibition of control specific binding: β2 (h).

The next experiment has as its target T11, δ2 (h) (DOP) (Homo sapiens, UniProt P41143).
T11 construct: expressed in transfected cells; host or cells: CHO cells
The experiment can be described thus: Receptor binding screen, [^3H]DADLE. Conditions: 10 uM Concentration of Compound I-1-Z; read-out: Mean Value, percent inhibition of control specific binding: δ2 (h) (DOP). As for the experimental part: as §1

The subject of the next experiment is BB (non-selective). The experiment can be described thus: Receptor binding screen, [^125I][Tyr^4]bombesin. Conditions: 10 uM Concentration of Compound I-1-Z. The arrangement: species or system rat. As for the experimental part:
as §1

The next experiment addresses T12, AT2 (h) (Homo sapiens, UniProt P50052).
T12 construct: expressed in transfected cells; host or cells: Hela cells
The experiment can be described thus: Receptor binding screen, [^125I]CGP 42112A. The note with it: 10 uM Concentration of Compound I-1-Z; read-out: Mean Value, percent inhibition of control specific binding: AT2 (h).

The target in a further experiment is T13, 5-HT3 (h) (Homo sapiens, UniProt P46098).
T13 construct: expressed in transfected cells; host or cells: CHO cells
In words: Receptor binding screen, [^3H]BRL 43694. The note with it: 10 uM Concentration of Compound I-1-Z; read-out: Mean Value, percent inhibition of control specific binding: 5-HT3 (h).

Another experiment addresses T14, 5-HT6 (h) (Homo sapiens, UniProt P50406).
T14 construct: expressed in transfected cells; host or cells: CHO cells
In words: Receptor binding screen, [^3H]LSD. The note with it: 10 uM Concentration of Compound I-1-Z; read-out: Mean Value, percent inhibition of control specific binding: 5-HT6 (h).

The next experiment concerns the target T15, D1 (h) (Homo sapiens, UniProt P21728).
T15 construct: expressed in transfected cells; host or cells: CHO cells
The experiment can be described thus: Receptor binding screen, [^3H]SCH 23390. Conditions: 10 uM Concentration of Compound I-1-Z; read-out: Mean Value, percent inhibition of control specific binding: D1 (h).

The next experiment has as its target T16, 5-HT1A (h) (Homo sapiens, UniProt P08908).
T16 construct: expressed in transfected cells; host or cells: HEK-293 cells
In words: Receptor binding screen, [^3H]8-OH-DPAT. The note with it: 10 uM Concentration of Compound I-1-Z; read-out: Mean Value, percent inhibition of control specific binding: 5-HT1A (h).

T11 sequence (P41143 whole entry): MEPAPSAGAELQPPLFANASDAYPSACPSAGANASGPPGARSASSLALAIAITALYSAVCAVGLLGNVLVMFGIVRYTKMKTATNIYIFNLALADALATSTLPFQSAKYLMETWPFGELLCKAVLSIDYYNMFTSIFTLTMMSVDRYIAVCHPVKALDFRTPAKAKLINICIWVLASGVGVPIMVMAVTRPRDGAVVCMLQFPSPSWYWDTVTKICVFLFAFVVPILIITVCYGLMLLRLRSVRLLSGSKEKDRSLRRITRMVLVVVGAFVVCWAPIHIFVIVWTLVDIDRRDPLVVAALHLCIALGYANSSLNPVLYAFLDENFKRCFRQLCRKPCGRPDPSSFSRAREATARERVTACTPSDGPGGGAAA
T5 sequence (P37288 whole entry): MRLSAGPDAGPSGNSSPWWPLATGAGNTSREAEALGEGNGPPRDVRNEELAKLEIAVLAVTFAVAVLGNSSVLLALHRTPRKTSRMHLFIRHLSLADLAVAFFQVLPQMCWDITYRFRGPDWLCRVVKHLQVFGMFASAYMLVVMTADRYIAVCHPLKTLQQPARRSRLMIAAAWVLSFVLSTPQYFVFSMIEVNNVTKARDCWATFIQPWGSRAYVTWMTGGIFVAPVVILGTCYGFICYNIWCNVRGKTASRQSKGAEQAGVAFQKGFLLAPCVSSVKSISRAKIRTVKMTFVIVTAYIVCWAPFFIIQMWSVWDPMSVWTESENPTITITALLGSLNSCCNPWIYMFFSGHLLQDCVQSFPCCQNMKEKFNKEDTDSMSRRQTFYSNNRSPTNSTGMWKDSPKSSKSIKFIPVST
T13 sequence (P46098 24-478): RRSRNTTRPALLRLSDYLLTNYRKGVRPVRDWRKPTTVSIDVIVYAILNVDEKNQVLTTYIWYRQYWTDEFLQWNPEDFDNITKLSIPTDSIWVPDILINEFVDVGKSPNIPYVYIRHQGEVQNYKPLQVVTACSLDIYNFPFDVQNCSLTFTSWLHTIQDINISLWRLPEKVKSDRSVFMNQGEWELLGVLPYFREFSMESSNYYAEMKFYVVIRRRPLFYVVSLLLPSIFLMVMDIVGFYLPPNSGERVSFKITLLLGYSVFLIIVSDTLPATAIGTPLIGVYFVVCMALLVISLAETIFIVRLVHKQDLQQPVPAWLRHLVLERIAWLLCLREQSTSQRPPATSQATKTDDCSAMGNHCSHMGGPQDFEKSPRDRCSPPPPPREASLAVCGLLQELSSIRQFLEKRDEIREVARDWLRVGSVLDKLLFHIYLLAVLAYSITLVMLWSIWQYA
T14 sequence (P50406 whole entry): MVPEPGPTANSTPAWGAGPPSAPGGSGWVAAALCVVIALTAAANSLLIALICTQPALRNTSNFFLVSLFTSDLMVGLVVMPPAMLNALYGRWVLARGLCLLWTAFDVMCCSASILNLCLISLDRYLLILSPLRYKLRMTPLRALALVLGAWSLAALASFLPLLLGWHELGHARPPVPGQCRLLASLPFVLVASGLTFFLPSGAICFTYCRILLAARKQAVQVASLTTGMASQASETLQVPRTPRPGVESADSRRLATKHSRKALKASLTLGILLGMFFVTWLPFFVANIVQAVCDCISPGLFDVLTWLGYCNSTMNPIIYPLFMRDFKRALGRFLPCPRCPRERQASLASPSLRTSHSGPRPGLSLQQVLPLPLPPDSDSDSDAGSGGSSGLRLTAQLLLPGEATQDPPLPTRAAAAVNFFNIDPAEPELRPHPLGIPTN
T15 sequence (P21728 whole entry): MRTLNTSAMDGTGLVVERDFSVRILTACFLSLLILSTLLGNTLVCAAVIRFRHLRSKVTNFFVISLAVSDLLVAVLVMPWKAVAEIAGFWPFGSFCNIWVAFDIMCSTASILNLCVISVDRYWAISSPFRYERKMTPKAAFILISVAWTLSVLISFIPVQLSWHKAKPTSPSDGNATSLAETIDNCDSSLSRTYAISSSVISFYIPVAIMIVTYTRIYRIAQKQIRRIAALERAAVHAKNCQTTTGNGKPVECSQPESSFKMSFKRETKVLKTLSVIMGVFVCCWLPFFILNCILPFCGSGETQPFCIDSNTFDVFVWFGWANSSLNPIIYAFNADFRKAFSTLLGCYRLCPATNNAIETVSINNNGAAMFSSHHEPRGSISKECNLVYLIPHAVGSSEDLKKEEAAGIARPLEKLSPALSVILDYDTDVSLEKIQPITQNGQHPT
T16 sequence (P08908 whole entry): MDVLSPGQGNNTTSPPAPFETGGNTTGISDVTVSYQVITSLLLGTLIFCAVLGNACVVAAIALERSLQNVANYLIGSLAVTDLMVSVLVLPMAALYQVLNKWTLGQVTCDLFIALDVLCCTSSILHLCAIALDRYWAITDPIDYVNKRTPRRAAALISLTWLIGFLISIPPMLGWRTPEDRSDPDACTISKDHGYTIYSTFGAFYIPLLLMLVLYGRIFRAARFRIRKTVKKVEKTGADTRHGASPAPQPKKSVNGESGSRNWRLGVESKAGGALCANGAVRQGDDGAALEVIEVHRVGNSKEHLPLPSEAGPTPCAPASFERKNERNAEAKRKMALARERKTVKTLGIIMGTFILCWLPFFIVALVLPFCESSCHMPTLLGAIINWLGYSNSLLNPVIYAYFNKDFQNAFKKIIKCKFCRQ
T7 sequence (P25021 whole entry): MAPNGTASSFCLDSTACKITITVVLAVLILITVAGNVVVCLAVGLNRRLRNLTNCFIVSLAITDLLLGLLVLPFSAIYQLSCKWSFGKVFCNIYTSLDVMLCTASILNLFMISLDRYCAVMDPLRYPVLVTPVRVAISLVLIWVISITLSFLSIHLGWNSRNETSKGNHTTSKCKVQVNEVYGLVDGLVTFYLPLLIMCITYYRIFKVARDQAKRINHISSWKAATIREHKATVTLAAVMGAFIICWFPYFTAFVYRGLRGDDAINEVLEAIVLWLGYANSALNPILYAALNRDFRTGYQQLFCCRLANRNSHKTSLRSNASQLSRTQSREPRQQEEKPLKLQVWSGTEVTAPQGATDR
T10 sequence (P07550 whole entry): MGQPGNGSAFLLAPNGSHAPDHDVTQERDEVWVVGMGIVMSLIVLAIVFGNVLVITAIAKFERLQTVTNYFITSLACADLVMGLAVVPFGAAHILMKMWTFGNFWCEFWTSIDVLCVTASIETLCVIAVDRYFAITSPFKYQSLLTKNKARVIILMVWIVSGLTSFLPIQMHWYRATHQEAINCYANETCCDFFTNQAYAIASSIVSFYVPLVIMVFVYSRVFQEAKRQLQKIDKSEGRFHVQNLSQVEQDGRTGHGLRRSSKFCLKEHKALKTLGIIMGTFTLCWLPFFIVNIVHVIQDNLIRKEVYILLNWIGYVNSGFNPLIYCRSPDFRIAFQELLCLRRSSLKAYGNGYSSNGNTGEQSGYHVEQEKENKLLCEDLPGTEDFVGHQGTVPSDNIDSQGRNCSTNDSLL
T12 sequence (P50052 whole entry): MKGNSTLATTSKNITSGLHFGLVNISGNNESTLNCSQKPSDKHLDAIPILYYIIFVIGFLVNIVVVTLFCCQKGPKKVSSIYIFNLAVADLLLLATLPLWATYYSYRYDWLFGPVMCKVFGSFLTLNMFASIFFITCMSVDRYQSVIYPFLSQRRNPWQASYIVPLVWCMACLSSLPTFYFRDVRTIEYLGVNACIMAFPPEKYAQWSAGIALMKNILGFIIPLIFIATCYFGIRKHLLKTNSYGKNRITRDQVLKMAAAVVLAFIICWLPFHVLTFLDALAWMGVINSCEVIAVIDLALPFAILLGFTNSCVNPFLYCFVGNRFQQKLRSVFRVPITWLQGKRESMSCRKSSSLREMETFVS
T8 sequence (P35462 whole entry): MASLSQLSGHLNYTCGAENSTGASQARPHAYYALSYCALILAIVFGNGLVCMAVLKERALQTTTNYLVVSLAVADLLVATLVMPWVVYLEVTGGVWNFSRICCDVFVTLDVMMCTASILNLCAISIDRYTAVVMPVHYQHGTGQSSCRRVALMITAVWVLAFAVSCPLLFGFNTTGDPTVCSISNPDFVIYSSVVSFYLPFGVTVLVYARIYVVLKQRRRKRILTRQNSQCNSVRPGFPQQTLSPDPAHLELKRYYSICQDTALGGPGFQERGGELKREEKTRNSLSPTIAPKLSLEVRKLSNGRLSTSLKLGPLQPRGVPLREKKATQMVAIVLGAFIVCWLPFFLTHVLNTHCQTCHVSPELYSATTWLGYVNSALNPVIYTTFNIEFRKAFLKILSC
T9 sequence (P30556 whole entry): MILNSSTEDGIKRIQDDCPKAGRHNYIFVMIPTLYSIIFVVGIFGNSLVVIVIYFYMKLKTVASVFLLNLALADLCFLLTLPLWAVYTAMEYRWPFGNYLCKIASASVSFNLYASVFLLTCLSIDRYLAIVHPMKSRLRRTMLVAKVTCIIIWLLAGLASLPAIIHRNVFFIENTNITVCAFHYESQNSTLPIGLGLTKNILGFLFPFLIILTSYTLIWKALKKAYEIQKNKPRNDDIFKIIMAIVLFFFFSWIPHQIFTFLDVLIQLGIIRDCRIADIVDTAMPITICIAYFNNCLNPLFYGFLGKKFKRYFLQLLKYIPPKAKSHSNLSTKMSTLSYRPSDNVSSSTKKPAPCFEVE
T6 sequence (P25103 whole entry): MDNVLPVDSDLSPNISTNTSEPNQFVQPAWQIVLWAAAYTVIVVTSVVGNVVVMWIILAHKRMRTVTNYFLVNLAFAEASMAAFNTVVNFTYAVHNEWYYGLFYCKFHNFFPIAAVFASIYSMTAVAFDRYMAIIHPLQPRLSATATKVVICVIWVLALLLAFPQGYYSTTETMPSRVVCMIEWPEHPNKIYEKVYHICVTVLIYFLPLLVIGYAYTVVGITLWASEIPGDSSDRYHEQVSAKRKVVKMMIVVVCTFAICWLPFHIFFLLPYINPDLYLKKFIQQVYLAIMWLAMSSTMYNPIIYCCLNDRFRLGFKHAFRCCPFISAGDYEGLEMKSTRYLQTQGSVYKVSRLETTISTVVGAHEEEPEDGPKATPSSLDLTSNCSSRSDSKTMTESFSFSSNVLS

Turning to `COc1ccc(C/C(=C/F)CN)cc1.Cl` [Compound I-1-Z, (Z)-3-Fluoro-2-(4-methoxybenzyl)-allylamine hydrochloride], in [1], the “Ligand binding to the listed receptors” value is “not affected”. In addition, the inhibition at 10 µM is 14% in experiment [2]; 12% on GAL2 (h); 27% on M5 (h); -6% on BZD (peripheral); 9% at V1a (h); -6% on NK1 (h). Further, the inhibition at 10 µM is 16% at H2 (h); -2% on D3 (h); 10% on AT1 (h); 6% on β2 (h); 0% at δ2 (h) (DOP); -19% on AT2 (h). Moreover, the inhibition at 10 µM on 5-HT3 (h) is 4%; on 5-HT6 (h), 1%; at D1 (h), -2%; on 5-HT1A (h), 34%. The “Mean Value, percent inhibition of control specific binding: BB (non-selective)” value in the experiment with BB (non-selective) stood at 21%.

A word on the inhibition: it is the drop in the measured response relative to a control, in per cent.

For the origin of these results see patent US20110269811A1, “INHIBITORS OF SEMICARBAZIDE-SENSITIVE AMINE OXIDASE (SSAO) AND VAP-1 MEDIATED ADHESION USEFUL FOR TREATMENT AND PREVENTION OF DISEASES” (priority 2006, published 2011).
